Measured values taken from ChEMBL document CHEMBL1201862, “PubChem BioAssay data set” (2004).
Active and inactive are the calls of the source.

Assays:
[1] = biological target: Melanocortin receptor 4 (Homo sapiens, UniProt P32245); experiment: inhibitors of MC4R cAMP signaling – cell-based, TR-FRET, biased antagonists, dose response (AID 602298); assay type: functional;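 note: antagonist potency against agonist-stimulated cAMP production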
[2] = cAMP pathway inhibition in counterscreen cell line – TR-FRET cAMP detection, counter-screen for MC4R biased antagonist project, dose response (AID 602305); assay type: functional, cell-based;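 note: U2OS cells stimulated with forskolin near its EC80 as the cAMP inducer; potency is for inhibition of forskolin-stimulated cAMP signaling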
[3] = Luminescence Cell-Based Dose Response to Identify Activators of 5'UTR Stem-Loop Driven Prion Protein mRNA Translation in H4-C Neuroglioblastoma Cells. [Related pubchem assays: 1829 (Project Summary), 1814 (Primary HTS)]; assay type: functional
[4] = Luminescence Cell-Based Dose Response HTS to Identify Activators of Luciferase Translation or Activity in H4 […] Cells. [Related pubchem assays: 1829 (Project Summary), 1814 (Primary HTS)]; assay type: functional
[5] = system: H4; experiment: Luminescence Cell-Based Dose Response HTS to Identify Activators of 5'UTR Stem-Loop Driven Prion Protein mRNA Translation in H4 Neuroglioblastoma Cells. [Related pubchem assays: 1829 (Project Summary), 1814 (Primary HTS)]; assay type: functional; conditions: Homo sapiens
[6] = Luminescence Cell-Based Dose Response to Identify Activators of Luciferase Translation or Activity in H4-C Neuroglioblastoma Cells. [Related pubchem assays: 1829 (Project Summary), 1814 (Primary HTS)]; assay type: functional
[7] = Luminescence Cell-Based Dose Confirmation to Identify Activators of 5'UTR Stem-Loop Driven Alpha-Synuclein mRNA Translation in H4 Neuroglioblastoma Cells. [Related pubchem assays: 1829 (Project Summary), 1814 (Primary HTS)]; assay type: functional
[8] = system: CHO-K1; experiment: (§1) Counterscreen for antagonists of the orexin 1 receptor (OX1R; HCRTR1): Homogeneous time resolved fluorescence (HTRF)-based cell-based dose response assay to identify antagonists of the parental CHO-K1 cell line. [Related pubchem assays (depositor defined):AID434989, AID435008, AID463079, AID485270, AID492963, AID492964, AID492965, AID493232, AID504699, AID504701]; assay type: functional; conditions: Cricetulus griseus
[9] = as §1, with “Fluorescence-based” for “Homogeneous time resolved fluorescence (HTRF)-based”, “cell-based high throughput” for “cell-based”, “CHO” for “CHO-K1”; assay type: functional
[10] = biological target: T1, Orexin/Hypocretin receptor type 1 (Homo sapiens, UniProt O43613); experiment: Homogeneous Time Resolved Fluorescence (HTRF)-based cell-based high throughput dose response assay for antagonists of the orexin 1 receptor (OX1R; HCRTR1). [Related pubchem assays (depositor defined):AID434989, AID435008, AID463079, AID485270, AID492963, AID492964, AID492965, AID493232, AID504717, AID504718]; assay type: functional
T1 sequence (O43613 whole entry): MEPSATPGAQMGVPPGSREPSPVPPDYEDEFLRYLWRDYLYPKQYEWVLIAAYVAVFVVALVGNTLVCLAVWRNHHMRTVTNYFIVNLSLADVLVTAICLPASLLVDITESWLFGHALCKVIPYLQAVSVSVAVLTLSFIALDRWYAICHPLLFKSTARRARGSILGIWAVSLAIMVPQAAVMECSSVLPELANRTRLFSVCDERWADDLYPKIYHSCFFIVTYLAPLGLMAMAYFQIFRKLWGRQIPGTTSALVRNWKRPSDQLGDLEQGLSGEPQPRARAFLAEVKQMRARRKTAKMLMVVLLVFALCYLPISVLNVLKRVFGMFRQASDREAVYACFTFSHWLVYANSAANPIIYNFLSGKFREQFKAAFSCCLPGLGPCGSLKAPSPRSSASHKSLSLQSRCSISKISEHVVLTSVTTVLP

[11] = biological target: T1, Orexin/Hypocretin receptor type 1; experiment: Fluorescence-based cell-based high throughput dose response assay for antagonists of the orexin 1 receptor (OX1R; HCRTR1). [Related pubchem assays (depositor defined):AID434989, AID435008, AID463079, AID485270, AID492963, AID492964, AID492965, AID493232, AID504717, AID504718]; assay type: functional
[12] = biological target: T2, Orexin receptor type 2 (Homo sapiens, UniProt O43614); experiment: Counterscreen assay for antagonists of the orexin 1 receptor (OX1R; HCRTR1): Fluorescence-based cell-based dose response assay for antagonists of the orexin 2 receptor (OX2R; HCRTR2), run by assay provider.; assay type: functional
[13] = biological target: T2, Orexin receptor type 2; experiment: Counterscreen assay for antagonists of the orexin 1 receptor (OX1R; HCRTR1): Homogeneous Time Resolved Fluorescence (HTRF)-based cell-based dose response assay for antagonists of the orexin 2 receptor (OX2R; HCRTR2), run by assay provider.; assay type: functional
[14] = biological target: T3, Insulin-degrading enzyme (Homo sapiens, UniProt P14735); experiment: recombinant IDE activation, cell-free – biochemical, fluorescence polarization, counter-screen for IDE activator project, dose response (AID 588681)
T3 sequence (P14735 whole entry): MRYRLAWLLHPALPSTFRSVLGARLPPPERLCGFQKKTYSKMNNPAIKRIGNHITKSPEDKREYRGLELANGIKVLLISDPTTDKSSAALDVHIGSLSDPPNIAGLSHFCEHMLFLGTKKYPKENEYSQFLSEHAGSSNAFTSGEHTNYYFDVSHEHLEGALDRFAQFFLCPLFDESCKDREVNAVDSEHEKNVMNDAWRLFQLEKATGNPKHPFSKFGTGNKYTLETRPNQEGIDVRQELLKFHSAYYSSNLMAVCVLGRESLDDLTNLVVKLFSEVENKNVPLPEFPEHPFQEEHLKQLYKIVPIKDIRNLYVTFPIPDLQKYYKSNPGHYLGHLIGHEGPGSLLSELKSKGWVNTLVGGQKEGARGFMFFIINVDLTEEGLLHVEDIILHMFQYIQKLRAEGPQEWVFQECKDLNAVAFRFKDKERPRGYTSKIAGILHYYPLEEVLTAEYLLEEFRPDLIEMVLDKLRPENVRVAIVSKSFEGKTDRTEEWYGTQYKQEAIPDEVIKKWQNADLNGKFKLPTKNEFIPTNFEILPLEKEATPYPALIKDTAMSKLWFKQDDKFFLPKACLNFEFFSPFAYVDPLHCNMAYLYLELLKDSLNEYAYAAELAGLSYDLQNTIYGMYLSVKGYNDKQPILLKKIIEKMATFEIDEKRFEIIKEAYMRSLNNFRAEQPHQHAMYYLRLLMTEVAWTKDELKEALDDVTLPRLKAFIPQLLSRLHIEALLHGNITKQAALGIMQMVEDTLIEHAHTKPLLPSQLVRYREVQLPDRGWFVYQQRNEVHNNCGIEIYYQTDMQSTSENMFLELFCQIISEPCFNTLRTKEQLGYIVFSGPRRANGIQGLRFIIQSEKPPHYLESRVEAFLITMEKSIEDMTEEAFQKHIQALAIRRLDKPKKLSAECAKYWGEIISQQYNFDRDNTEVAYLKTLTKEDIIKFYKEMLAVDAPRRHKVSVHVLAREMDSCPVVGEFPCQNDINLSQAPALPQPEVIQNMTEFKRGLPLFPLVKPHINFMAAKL

[15] = biological target: T3, Insulin-degrading enzyme; experiment: cellular IDE activation of Abeta substrate cleavage – fluorescence polarization, HEK cells, dose response (AID 588439); assay type: functional, cell-based
[16] = system: HEK293; experiment: membrane integrity loss in HEK cells – cell-based, fluorescence, cytotoxicity control for IDE activator project, dose response (AID 588440); assay type: functional; conditions: Homo sapiens;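 note: cytotoxicity by LDH release measuring loss of membrane integrity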
[17] = system: HEK293; experiment: optical interference in Abeta FP readout, dose response, artefact control for IDE activator project, biochemical, fluorescence polarization (AID 588442); assay type: functional, cell-based; conditions: Homo sapiens
[18] = biological target: Serine/threonine-protein kinase pim-1 (Homo sapiens, UniProt P11309); assay type: functional
[19] = biological target: Cell division cycle 7-related protein kinase (Homo sapiens, UniProt O00311); assay type: functional;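 note: value obtained from a kinome-wide kinase panel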
[20] = biological target: Homeodomain-interacting protein kinase 2 (Homo sapiens, UniProt Q9H2X6); assay type: functional;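 note: measured within a kinome-wide kinase profiling panel, HIPK2 being one panel member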
[21] = biological target: Interleukin-1 receptor-associated kinase 4 (Homo sapiens, UniProt Q9NWZ3); assay type: functional
[22] = biological target: Cyclin-dependent kinase 7 (Homo sapiens, UniProt P50613); assay type: functional;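 note: value comes from a kinome-wide kinase profiling panel in which CDK7 is one member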
[23] = biological target: Glycogen synthase kinase-3 beta (Homo sapiens, UniProt P49841); assay type: functional;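 note: value comes from a broad kinome profiling panel, with GSK3B as the panel member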
[24] = biological target: Cyclin-dependent kinase 9 (Homo sapiens, UniProt P50750); assay type: functional;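 note: value from the CDK9 entry of a kinome-spanning kinase panel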
[25] = biological target: cAMP-dependent protein kinase catalytic subunit alpha (Homo sapiens, UniProt P17612); assay type: functional
[26] = biological target: Sphingosine 1-phosphate receptor 2 (Homo sapiens, UniProt O95136); experiment: Late-stage fluorescence-based dose-response cell-based counterscreen assay to identify agonists of the Sphingosine 1-Phosphate Receptor 3 (S1P3): Sphingosine 1-Phosphate Receptor 2 (S1P2) agonist assay.; assay type: functional
[27] = biological target: T4, Sphingosine 1-phosphate receptor 4 (Homo sapiens, UniProt O95977); experiment: Late-stage fluorescence-based dose-response cell-based counterscreen assay to identify agonists of the Sphingosine 1-Phosphate Receptor 3 (S1P3): Sphingosine 1-Phosphate Receptor 4 (S1P4) agonist assay.; assay type: functional
T4 sequence (O95977 whole entry): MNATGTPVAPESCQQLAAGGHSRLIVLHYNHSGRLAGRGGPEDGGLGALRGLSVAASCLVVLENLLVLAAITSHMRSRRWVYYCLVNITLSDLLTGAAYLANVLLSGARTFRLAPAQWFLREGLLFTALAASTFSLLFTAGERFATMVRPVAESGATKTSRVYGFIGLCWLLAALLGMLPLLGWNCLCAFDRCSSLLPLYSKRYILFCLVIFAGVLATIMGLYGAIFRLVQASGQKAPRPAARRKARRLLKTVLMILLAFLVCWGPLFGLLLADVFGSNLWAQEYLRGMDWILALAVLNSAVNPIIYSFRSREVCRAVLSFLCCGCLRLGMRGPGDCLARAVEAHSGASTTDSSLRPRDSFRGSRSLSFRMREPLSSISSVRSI

[28] = biological target: Aurora kinase A (Homo sapiens, UniProt O14965); assay type: functional;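 note: value from the Navigating the Kinome kinase panel profiling, panel entry STK6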
[29] = biological target: Vascular endothelial growth factor receptor 2 (Homo sapiens, UniProt P35968); assay type: functional
[30] = biological target: Aurora kinase B (Homo sapiens, UniProt Q96GD4); assay type: functional
[31] = biological target: Cyclin-dependent kinase 19 (Homo sapiens, UniProt Q9BWU1); experiment: Navigating the Kinome. Panel member name: CDC2L6; assay type: functional
[32] = THP-1 cell cytotoxicity, cytotoxicity control, set 6 (AID 602433); assay type: functional; conditions: Mycobacterium tuberculosis
[33] = biological target: Dual specificity protein kinase CLK2 (Homo sapiens, UniProt P49760); assay type: functional
[34] = biological target: Serine/threonine-protein kinase 17A (Homo sapiens, UniProt Q9UEE5); assay type: functional
[35] = biological target: Mitogen-activated protein kinase kinase kinase kinase 2 (Homo sapiens, UniProt Q12851); assay type: functional;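 note: measured as one member of a kinome-wide kinase panel, with MAP4K2 as the panel entry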
[36] = biological target: Misshapen-like kinase 1 (Homo sapiens, UniProt Q8N4C8); assay type: functional;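 note: kinome panel screen with MINK as the panel member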
[37] = biological target: Protein kinase C delta type (Homo sapiens, UniProt Q05655); assay type: functional
[38] = biological target: Calcium/calmodulin-dependent protein kinase type II subunit gamma (Homo sapiens, UniProt Q13555); assay type: functional
[39] = biological target: Calcium/calmodulin-dependent protein kinase type II subunit delta (Homo sapiens, UniProt Q13557); assay type: functional
[40] = biological target: Receptor-type tyrosine-protein kinase FLT3 (Homo sapiens, UniProt P36888); assay type: functional;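 note: FLT3 was tested as one member of a kinome-wide kinase panel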
[41] = biological target: Calcium/calmodulin-dependent protein kinase type II subunit beta (Homo sapiens, UniProt Q13554); assay type: functional

T2 sequence (O43614 whole entry): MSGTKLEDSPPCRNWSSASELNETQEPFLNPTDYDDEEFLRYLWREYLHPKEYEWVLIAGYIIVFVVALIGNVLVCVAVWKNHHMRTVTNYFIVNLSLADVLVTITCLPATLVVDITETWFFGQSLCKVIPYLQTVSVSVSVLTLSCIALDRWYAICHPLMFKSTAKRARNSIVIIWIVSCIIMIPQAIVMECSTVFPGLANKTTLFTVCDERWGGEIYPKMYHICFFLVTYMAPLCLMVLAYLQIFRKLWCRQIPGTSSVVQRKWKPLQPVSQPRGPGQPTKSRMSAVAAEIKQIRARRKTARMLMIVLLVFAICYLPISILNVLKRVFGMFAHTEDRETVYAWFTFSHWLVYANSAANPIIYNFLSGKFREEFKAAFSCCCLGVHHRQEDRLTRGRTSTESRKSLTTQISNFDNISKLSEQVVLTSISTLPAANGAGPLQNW
Chain of Dual specificity protein kinase CLK2 (P49760 whole entry): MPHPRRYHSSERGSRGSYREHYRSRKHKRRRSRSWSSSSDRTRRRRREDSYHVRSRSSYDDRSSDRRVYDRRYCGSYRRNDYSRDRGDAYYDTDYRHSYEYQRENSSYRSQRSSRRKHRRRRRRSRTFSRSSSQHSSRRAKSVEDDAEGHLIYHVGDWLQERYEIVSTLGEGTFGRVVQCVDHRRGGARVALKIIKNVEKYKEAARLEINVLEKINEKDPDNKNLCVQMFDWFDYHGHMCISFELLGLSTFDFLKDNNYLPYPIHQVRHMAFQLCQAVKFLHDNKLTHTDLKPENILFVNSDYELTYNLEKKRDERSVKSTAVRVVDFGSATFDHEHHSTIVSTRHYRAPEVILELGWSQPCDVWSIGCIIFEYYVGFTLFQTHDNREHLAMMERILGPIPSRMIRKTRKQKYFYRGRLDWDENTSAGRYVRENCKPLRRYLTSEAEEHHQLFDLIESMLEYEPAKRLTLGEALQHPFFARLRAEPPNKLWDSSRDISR
Chain of Interleukin-1 receptor-associated kinase 4 (Q9NWZ3 whole entry): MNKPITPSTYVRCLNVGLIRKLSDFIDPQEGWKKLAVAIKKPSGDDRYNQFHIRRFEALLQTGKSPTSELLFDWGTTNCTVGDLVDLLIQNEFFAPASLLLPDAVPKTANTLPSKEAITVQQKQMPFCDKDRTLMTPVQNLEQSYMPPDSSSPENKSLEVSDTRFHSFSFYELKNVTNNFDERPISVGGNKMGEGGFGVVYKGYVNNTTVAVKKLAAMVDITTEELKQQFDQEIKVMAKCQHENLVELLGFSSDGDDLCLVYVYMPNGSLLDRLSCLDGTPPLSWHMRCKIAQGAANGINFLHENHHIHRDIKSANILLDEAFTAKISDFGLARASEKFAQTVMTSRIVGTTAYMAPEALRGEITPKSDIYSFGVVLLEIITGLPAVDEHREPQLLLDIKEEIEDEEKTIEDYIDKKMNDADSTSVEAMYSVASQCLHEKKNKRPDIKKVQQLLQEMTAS
Chain of Sphingosine 1-phosphate receptor 2 (O95136 whole entry): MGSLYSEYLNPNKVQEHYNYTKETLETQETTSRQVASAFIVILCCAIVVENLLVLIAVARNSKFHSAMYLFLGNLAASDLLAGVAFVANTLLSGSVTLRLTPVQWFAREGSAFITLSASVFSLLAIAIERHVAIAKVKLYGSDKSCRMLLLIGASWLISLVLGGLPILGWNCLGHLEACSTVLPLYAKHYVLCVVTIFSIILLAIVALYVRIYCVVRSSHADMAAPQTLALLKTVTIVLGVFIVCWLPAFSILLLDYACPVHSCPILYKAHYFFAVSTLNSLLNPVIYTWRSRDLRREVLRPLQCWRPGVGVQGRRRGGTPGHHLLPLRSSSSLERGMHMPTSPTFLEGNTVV
Chain of Protein kinase C delta type (Q05655 whole entry): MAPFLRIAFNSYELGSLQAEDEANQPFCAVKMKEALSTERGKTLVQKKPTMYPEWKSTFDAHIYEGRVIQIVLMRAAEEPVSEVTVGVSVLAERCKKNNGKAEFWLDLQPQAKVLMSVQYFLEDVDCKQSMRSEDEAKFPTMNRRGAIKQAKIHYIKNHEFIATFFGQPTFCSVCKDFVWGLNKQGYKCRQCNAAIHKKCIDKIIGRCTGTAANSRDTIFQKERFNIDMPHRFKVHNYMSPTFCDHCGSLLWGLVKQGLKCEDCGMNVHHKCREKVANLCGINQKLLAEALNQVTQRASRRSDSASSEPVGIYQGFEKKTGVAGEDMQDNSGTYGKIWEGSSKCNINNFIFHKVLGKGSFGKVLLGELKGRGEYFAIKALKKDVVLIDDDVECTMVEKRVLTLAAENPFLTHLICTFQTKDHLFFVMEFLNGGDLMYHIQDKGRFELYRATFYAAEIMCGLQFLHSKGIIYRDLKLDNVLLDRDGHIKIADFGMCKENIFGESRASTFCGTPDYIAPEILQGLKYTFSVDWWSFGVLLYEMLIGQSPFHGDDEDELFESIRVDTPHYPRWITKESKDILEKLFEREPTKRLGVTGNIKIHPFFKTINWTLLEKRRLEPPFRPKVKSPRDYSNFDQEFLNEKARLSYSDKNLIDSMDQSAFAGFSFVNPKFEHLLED
Chain of Glycogen synthase kinase-3 beta (P49841 whole entry): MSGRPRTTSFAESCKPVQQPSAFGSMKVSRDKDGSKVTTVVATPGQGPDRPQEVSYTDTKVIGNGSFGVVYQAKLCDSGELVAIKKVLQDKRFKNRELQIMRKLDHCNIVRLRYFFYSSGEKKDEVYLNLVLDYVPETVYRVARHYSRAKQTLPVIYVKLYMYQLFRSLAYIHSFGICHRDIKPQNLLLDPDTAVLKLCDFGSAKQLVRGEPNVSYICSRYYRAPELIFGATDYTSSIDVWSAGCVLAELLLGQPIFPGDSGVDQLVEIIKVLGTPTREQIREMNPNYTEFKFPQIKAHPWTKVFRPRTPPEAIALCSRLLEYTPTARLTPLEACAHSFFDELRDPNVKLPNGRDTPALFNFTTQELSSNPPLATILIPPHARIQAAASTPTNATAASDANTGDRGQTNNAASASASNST
Chain of Aurora kinase A (O14965 whole entry): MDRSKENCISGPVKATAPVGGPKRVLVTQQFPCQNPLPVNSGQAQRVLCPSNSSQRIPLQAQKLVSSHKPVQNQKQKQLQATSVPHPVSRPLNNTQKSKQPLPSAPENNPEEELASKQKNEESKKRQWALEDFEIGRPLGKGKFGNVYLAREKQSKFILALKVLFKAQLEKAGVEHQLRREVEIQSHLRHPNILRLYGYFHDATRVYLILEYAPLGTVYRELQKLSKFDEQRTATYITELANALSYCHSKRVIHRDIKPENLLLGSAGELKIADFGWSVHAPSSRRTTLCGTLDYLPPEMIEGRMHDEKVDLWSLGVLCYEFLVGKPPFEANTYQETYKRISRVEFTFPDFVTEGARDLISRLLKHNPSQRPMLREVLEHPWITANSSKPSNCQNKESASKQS
Chain of Cell division cycle 7-related protein kinase (O00311 whole entry): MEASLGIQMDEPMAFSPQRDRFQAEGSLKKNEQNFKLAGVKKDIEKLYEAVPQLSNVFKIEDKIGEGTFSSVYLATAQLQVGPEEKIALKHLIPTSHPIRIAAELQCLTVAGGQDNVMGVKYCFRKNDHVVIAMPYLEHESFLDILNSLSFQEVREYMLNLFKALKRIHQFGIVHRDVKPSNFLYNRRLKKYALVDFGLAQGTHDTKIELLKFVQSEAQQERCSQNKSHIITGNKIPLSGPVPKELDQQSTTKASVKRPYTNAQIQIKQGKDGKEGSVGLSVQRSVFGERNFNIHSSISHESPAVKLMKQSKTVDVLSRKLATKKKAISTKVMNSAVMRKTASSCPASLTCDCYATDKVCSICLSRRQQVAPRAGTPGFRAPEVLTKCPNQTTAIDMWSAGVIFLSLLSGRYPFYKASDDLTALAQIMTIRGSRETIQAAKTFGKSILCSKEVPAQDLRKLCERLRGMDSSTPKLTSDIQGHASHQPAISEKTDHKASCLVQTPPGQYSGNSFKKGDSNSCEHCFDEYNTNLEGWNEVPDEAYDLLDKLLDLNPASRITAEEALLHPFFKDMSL
Chain of Melanocortin receptor 4 (P32245 whole entry): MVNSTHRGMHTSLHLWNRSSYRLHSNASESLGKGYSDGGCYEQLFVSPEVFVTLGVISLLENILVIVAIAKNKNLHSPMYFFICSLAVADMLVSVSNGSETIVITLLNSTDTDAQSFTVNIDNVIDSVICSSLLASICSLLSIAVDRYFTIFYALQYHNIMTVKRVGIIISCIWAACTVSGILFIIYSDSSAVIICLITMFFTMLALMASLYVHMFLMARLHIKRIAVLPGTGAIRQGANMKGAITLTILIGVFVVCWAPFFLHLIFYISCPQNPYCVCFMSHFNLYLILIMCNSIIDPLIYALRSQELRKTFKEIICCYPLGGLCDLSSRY
Chain of Cyclin-dependent kinase 9 (P50750 whole entry): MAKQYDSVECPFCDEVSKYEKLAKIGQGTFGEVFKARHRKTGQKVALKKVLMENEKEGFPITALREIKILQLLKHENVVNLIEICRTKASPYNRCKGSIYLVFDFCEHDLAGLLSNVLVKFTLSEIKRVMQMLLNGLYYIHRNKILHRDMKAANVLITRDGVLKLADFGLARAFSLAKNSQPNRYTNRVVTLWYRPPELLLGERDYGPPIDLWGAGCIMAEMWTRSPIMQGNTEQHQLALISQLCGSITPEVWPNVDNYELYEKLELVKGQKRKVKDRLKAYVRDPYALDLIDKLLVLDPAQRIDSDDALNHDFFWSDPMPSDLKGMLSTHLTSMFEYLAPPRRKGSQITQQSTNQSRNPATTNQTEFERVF
Chain of Serine/threonine-protein kinase pim-1 (P11309 whole entry): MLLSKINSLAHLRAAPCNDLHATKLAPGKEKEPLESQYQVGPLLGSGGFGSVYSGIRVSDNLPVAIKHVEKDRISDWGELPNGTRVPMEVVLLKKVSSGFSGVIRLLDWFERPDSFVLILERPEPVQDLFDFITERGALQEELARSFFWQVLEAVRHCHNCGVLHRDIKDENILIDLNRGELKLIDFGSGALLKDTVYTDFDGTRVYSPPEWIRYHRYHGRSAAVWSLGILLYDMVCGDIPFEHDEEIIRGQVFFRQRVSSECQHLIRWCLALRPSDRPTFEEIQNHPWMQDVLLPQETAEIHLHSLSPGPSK

CCN(CC)C(=O)C(C)N(C#N)c1nc(Cl)nc(N(C)C)n1 (stereo unspecified)
IC50 [1]: > 64.6 µM (inactive)
IC50 [2]: > 64.6 µM (inactive)

O=C(Nc1ccc2sc3ccccc3c(=O)c2c1)c1ccccc1Cl
EC50 [3]: 300 nM (active)
EC50 [4]: 297 nM (active)
EC50 [5]: 199 nM (active)
EC50 [6]: 454 nM (active)
EC50 [7]: 232 nM (active)
IC50 [8]: > 66.2 µM (inactive)
IC50 [9]: > 49.8 µM (inactive)
IC50 [10]: 3.26 µM (active)
IC50 [11]: > 5.53 µM (active)
IC50 [12]: > 88.8 µM (inactive)
IC50 [13]: 1.54 µM (active)

COc1ccc(CCNC(=O)COC(=O)C2CC2C)cc1OC (stereo unspecified)
EC50 [14]: > 54.7 µM (inactive)
EC50 [15]: > 54.7 µM (inactive)
IC50 [16]: > 89.2 µM (inactive)
EC50 [17]: > 55.9 µM (inactive)

CC(C)(CO)CCCNc1cc(-c2c[nH]c3ncccc23)cc(Cl)n1
Ki [18]: 398 nM (active)
Ki [19]: 0.631 nM (active)
Ki [20]: 7.94 nM (active)
Ki [21]: 1.58 µM (active)
Ki [22]: 79.4 nM (active)
Ki [23]: 31.6 nM (active)
Ki [24]: 158 nM (active)
Ki [25]: 31.6 nM (active)

O=C(c1cc(C2CC2)on1)N(C1CCCCC1)C1CCOCC1
EC50 [26]: > 50 µM (inactive)
EC50 [27]: > 50 µM (inactive)

O=C(Nc1cccc(-c2nn3ccccc3c2-c2ccnc(Nc3ccc4c(c3)CNCC4)n2)c1)c1c(F)cccc1F
Ki [28]: 200 nM (active)
Ki [29]: 12.6 nM (active)
Ki [30]: 5.01 nM (active)
Ki [31]: 20 nM (active)

O=C(c1ccc(CNc2c(N3CCOCC3)c(=O)c2=O)cc1)N1CCC(c2ccccc2)CC1
CC50 [32]: > 100 µM (active)

Cc1n[nH]c2c1C(c1ccccc1F)C(C#N)=C(N)O2 (stereo unspecified)
Ki [33]: 7.94 µM (active)
Ki [34]: 2.51 µM (active)
Ki [35]: 5.01 µM (active)
Ki [36]: 5.01 µM (active)

CCNc1nc(C)c(C=CC(C)(C)c2ccc(C(F)(F)F)cc2)c(NCC)n1
Ki [37]: 7.94 µM (active)
Ki [38]: 1.58 µM (active)
Ki [39]: 2 µM (active)
Ki [40]: 1.26 µM (active)
Ki [41]: 2 µM (active)
